Reference: article PMC8365602 (Journal of Medicinal Chemistry, 2021)

Key:
[1] = Hepatic metabolism in human liver-on-chip; assay type: in vitro ADME; details: 1 μM, 48 h
Experimental: LCMs, 27a, and 27a metabolites were extracted from PMNL, medium of the liver-on-chip, murine plasma, peritoneal exudate, or homogenized murine tissue as described.[6] In brief, PBS pH 7.4, methanol, chloroform, and saline (final ratio: 14:34:35:17) were successively added together with 13d (9 pmol) as the internal standard. The organic layer was evaporated, and the extracted LCMs were dissolved in methanol.
LCMs, 27a, and 27a metabolites were separated at a flow rate of 0.8 mL/min and a column temperature of 45 °C, with acetonitrile/H2O (10:90) as mobile phase A and acetonitrile as mobile phase B, both acidified with 0.07% formic acid. The linear gradient from A/B = 50:50 to 0:100 within 4.5 min was followed by isocratic elution with A/B = 0:100 for 1 min. MS parameters were adjusted according to Pein et al.[6] and as detailed in Table S3. Signal intensities were normalized to the internal standard 13d, and concentrations were calculated using external calibration curves as specified in Table S3. […]
The medium between the two membranes was renewed, and the vehicle (DMSO), 12a, or 27a were added. […] 12a, 27a, and their metabolites were extracted from the combined fractions and analyzed by UPLC-MS/MS.[6]

[2] = biological target: T1, 5-LOX (Homo sapiens, UniProt P09917); assay: Cell-free 5-LOX activity (isolated human recombinant enzyme); details: read-out: 5-LOX enzyme residual activity at 1 μM
T1 sequence (P09917 1-674): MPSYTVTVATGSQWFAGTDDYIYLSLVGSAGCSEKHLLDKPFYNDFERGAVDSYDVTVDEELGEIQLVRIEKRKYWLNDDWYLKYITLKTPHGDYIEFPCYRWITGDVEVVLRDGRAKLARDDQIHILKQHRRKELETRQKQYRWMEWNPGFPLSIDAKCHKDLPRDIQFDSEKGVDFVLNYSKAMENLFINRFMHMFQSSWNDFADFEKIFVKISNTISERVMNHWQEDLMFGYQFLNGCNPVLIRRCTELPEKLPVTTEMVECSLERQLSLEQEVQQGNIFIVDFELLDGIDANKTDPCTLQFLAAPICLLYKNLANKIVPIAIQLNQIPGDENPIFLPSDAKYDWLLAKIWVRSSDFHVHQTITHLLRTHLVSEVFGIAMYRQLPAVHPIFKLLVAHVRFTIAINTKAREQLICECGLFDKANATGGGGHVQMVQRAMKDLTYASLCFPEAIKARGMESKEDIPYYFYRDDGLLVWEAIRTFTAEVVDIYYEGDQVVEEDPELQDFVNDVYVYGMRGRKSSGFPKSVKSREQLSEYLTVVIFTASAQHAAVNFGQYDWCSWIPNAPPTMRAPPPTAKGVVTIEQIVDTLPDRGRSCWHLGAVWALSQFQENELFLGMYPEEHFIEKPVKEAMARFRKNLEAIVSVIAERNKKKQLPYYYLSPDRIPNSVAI

[3] = system: monocytes; assay: Monocyte membrane integrity (LDH release); assay type: cell-based, human; details: higher concentrations (>1 μM)
Experimental: To measure mitochondrial dehydrogenase activity, 3-(4,5-dimethylthiazol-2-yl)-2,5-diphenyltetrazolium bromide (MTT) (20 μL, 5 mg/mL, Sigma-Aldrich) was added to PBMC. After 4 h in the darkness, the formed formazan product was solubilized (10% SDS in 20 mM HCl) and the absorbance was read at 570 nm using a Multiskan Spectrum microplate reader (Thermo Fisher Scientific).[81]
LDH release was measured in monocytes using a CytoTox 96 nonradioactive cytotoxicity assay (Promega, Madison, WI) according to the manufacturer’s instruction using Triton X-100 (0.8%) as the maximum LDH release control.

[4] = biological target: T1, 5-LOX; assay: 5-LOX product formation in activated PMNL; details: PMNL, read-out: 5-LOX PMNL residual activity at 3 μM;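 also: freshly isolated human PMNL in PBS pH 7.4 plus glucose, preincubated 10 min at 37 °C with compound, 5-LOX products (all-trans LTB4 isomers, 5-HETE) quantified by RP-HPLC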
[5] = biological target: T1, 5-LOX; assay: Tryptophan fluorescence spectroscopy of 5-LOX; assay type: binding; parameters: made in house; host or cells: E. coli Bl21 (DE3); details: 5-LOX titrated with compound, 0–10 μM
Experimental: Fluorescence spectroscopy measurements on human recombinant 5-LOX (Abcam, Cambridge, U.K.) were conducted in PBS pH 7.4 at 25 °C using an Edinburgh Instruments FLS920 Series fluorescence spectrophotometer (Livingston, U.K.). […] The concentration range of 5-LOX used through the experiments was 0.3–0.6 μM. 5-LOX was titrated with a stock solution of the test compounds in dimethylformamide to yield an experimental compound concentration in the range of 0–10 μM. The final dimethylformamide concentration was kept under 5%. After each addition, the sample was incubated for 10 min before measurement. The fluorescence emission intensity values were corrected for dilution and background noise. All conditions were measured independently and in duplicate.
The fluorescence spectral shifts were analyzed by monitoring the alterations in the spectral center of mass by estimating the intensity-averaged emission wavelength (⟨λ⟩), as calculated from the following equation, where Fi is the fluorescence emission intensity at wavenumber νi, and the summation was performed over the range of measured F values [drawing 1] 1

- remaining activity at 1 µM [2]: 0.8 ± 0.2%
- LDH release from monocytes at higher concentrations [3]: not evident
- remaining activity at 3 µM [4]: 2 ± 0.8%
Compound: Cc1c(C)c2c(c(C)c1O)CC[C@@](C)(CCCC(C)CCCC(C)CCCC(C)C(=O)O)O2 (stereo partly drawn) [Compound 12a, α-T-13′-COOH]
- Hepatic metabolism [1]: truncated to metabolites with varying side-chain lengths
- Shift of spectral center of mass of intrinsic Trp fluorescence of 5-LOX [5]: substantially shifted to a shorter wavelength
